The values below come from patent US20090023738A1, “DIAMINOPYRIMIDINES AS MODULATORS OF THE EP2 RECEPTOR” (priority 2007, published 2009).

The target of test [1] is T1, EP2 subtype of the human PGE2 receptor (Homo sapiens, UniProt P43116).
T1 construct: host or cells: cells in a cell culture plate
Put plainly: cAMP antagonism assay (EP2 receptor signal, HTRF cAMP detection). The class given is cell-based. The following applies: in the presence of the agonist PGE2. An excerpt: 1. Detection of the Antagonism of the Human Prostaglandin E2 (Subtype EP2 Receptor Signal
(§1) The binding of PGE2 to the EP2 subtype of the human PGE2 receptor induces activation of membrane-associated adenylate cyclases and leads to the formation of cAMP. In the presence of the phosphodiesterase inhibitor IBMX, cAMP which has accumulated due to this stimulation and been released by cell lysis is employed in a competitive detection method. In this assay, the cAMP in the lysate competes with cAMP-XL665 for binding of an Eu cryptate-labelled anti-cAMP antibody.
(§2) The two signals are measured in a suitable measuring instrument with a time lag, i.e. after the background fluorescence has declined.
1.2.1 Antagonism Assay (Data for Each Well of a 384-Well plate): […]
After preincubation at room temperature (RT) for 30 minutes, 5 μl of a 4×PGE2 solution (11 nM) are added, and incubation is carried out in the presence of the agonist at RT for a further 60 min (volume: 20 μl) before the reaction is then stopped by adding 5 μl of lysis buffer and incubated at RT for a further 20 min (volume: ˜25 μl). The cell lysate is then transferred into a measuring plate and measured in accordance with the manufacturer's information (cyclic AMP kit Cisbio International # 62AMPPEC).

In test [2] the target is T1, EP2 subtype of the human PGE2 receptor. Nature of the test: cellular cAMP agonism assay. The class given is cell-based. The following applies: without PGE2. On the procedure: as §1, §2
1.2.2 Agonism Assay (Data for Each Well of a 384-Well Plate): […]
After incubation at room temperature (RT; volume: 15 μl) for 60 minutes, the reaction is then stopped by adding 5 μl of lysis buffer and incubated at RT for a further 20 min (volume: 20 μl). The cell lysate is then transferred into a measuring plate and measured in accordance with the manufacturer's information (cyclic AMP kit Cisbio International # 62AMPPEC).

Structures are written as SMILES.

T1 sequence (P43116 whole entry): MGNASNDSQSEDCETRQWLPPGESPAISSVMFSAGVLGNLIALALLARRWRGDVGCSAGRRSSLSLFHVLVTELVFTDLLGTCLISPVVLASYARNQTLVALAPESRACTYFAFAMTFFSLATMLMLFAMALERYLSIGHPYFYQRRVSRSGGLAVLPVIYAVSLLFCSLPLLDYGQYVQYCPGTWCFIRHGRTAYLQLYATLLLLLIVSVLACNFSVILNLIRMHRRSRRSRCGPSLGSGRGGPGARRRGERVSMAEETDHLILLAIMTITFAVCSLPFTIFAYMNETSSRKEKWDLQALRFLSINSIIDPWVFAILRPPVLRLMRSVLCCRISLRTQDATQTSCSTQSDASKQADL

`Cc1[nH]c2c(F)ccc(C)c2c1CCNc1cc(NCc2cccnc2)ncn1` [Example 6, N-[2-(7-Fluoro-2,4-dimethyl-1H-indol-3-yl)ethyl]-N′-pyridin-3-ylmethylpyrimidine-4,6-diamine]: the IC50 in test [1] worked out at 1600 nM. The “effect in the cellular agonism test” value in test [2] was “no inhibition”. For `Cc1[nH]c2c(F)ccc(C)c2c1CCNc1cc(NCc2ccccc2-c2ccccc2)ncn1` [Example 17, N-Biphenyl-2-ylmethyl-N′-[2-(7-fluoro-2,4-dimethyl-1H-indol-3-yl)ethyl]-pyrimidine-4,6-diamine], the IC50 in test [1] was found to be 1400 nM.

By IC50 is commonly meant the point on the concentration scale where inhibition reaches its midpoint.
